This assay deals with Complement factor D (Homo sapiens, UniProt P00746). Description: Human Factor D Assay: Human factor D (purified from human serum, Complement Technology, Inc.) at 80 nM final concentration is incubated with test compound at various concentrations for 5 minutes at room temperature in 50 mM Tris, 1M NaCl, pH 7.5. A synthetic substrate Z-L-Lys-SBzl and DTNB (Ellman's reagent) are added to final concentrations of 100 μM each. The increase in color is recorded at OD405 nm in a microplate in kinetic mode over 30 minutes with 30 second time points in a spectrofluorimeter. IC50 values are calculated by non-linear regression from the percentage of inhibition of complement factor D activity as a function of test compound concentration.
Complement factor D, sequence (P00746 whole entry): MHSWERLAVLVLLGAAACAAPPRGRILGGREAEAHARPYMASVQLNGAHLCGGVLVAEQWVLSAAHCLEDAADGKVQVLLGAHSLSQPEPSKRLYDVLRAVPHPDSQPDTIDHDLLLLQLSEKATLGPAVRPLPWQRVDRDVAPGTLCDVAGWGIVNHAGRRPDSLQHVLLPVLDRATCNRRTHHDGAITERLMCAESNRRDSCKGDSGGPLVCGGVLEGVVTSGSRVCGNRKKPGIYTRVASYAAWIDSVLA

Consider one molecule from ChEMBL document CHEMBL5726269, “Phosphonate compounds for treatment of complement mediated disorders” (2017).

For orientation: IC50 means the concentration at which inhibition is half-maximal. Regarding `CC(=O)c1cn(CC(=O)N2C[C@H](F)C[C@H]2C(=O)NCc2cccc(Cl)c2F)c2cc(P(=O)(Oc3ccccc3)Oc3ccccc3)ccc12`, the IC50 was < 1 µM.
